What was measured:
[1] = molecular target: Tyrosine-protein kinase Blk (Homo sapiens) (UniProt P51451); test: Binding affinity to human BLK serine residue assessed as residual binding at 10 uM by site dependent competitive binding assay
[2] = molecular target: Ephrin type-A receptor 8 (Homo sapiens) (UniProt P29322); test: Binding affinity to human EPHA8 tyrosine residue assessed as residual binding at 10 uM by site dependent competitive binding assay
[3] = molecular target: Cyclin-G-associated kinase (Homo sapiens) (UniProt O14976); test: Binding affinity to human GAK isoleucine residue assessed as residual binding at 10 uM by site dependent competitive binding assay
[4] = molecular target: Serine/threonine-protein kinase MARK2 (Homo sapiens) (UniProt Q7KZI7); test: Binding affinity to human Mark2 isoleucine residue assessed as residual binding at 10 uM by site dependent competitive binding assay
[5] = molecular target: Serine/threonine-protein kinase 17A (Homo sapiens) (UniProt Q9UEE5); test: Binding affinity to human DRAK1 valine residue assessed as residual binding at 10 uM by site dependent competitive binding assay
[6] = molecular target: Tyrosine-protein kinase Fer (Homo sapiens) (UniProt P16591); test: Binding affinity to human Fer assessed as residual binding at 10 uM by site dependent competitive binding assay
[7] = molecular target: Fibroblast growth factor receptor 3 (Homo sapiens) (UniProt P22607); test: Binding affinity to human Fgfr3 assessed as residual binding at 10 uM by site dependent competitive binding assay
[8] = molecular target: Fibroblast growth factor receptor 4 (Homo sapiens) (UniProt P22455); test: Binding affinity to human Fgfr4 assessed as residual binding at 10 uM by site dependent competitive binding assay
[9] = molecular target: Vascular endothelial growth factor receptor 1 (Homo sapiens) (UniProt P17948); test: Binding affinity to human Flt1 assessed as residual binding at 10 uM by site dependent competitive binding assay
[10] = molecular target: Vascular endothelial growth factor receptor 3 (Homo sapiens) (UniProt P35916); test: Binding affinity to human Flt4 assessed as residual binding at 10 uM by site dependent competitive binding assay
[11] = molecular target: Mitogen-activated protein kinase 8 (Homo sapiens) (UniProt P45983); test: Binding affinity to human Jnk1 isoleucine residue assessed as residual binding at 1 uM by site dependent competitive binding assay
[12] = molecular target: Mitogen-activated protein kinase 9 (Homo sapiens) (UniProt P45984); test: Binding affinity to human Jnk2 isoleucine residue assessed as residual binding at 1 uM by site dependent competitive binding assay
[13] = molecular target: Mitogen-activated protein kinase 10 (Homo sapiens) (UniProt P53779); test: Binding affinity to human Jnk3 isoleucine residue assessed as residual binding at 1 uM by site dependent competitive binding assay
[14] = molecular target: T1, Mast/stem cell growth factor receptor Kit (Homo sapiens, UniProt P10721); test: Binding affinity to human Kit cysteine residue assessed as residual binding at 1 uM by site dependent competitive binding assay
[15] = test system: Mast/stem cell growth factor receptor Kit (Homo sapiens), P10721 [V559D]; test: Binding affinity to human Kit V559D mutant cysteine residue assessed as residual binding at 1 uM by site dependent competitive binding assay
[16] = test system: Mast/stem cell growth factor receptor Kit (Homo sapiens), P10721 [V559D,V654A]; test: Binding affinity to human Kit V559D/V654A mutant cysteine residue assessed as residual binding at 1 uM by site dependent competitive binding assay
[17] = molecular target: Tyrosine-protein kinase Lck (Homo sapiens) (UniProt P06239); test: Binding affinity to human LCK tyrosine residue assessed as residual binding at 1 uM by site dependent competitive binding assay
[18] = molecular target: Tyrosine-protein kinase Lyn (Homo sapiens) (UniProt P07948); test: Binding affinity to human LYN tyrosine residue assessed as residual binding at 1 uM by site dependent competitive binding assay
[19] = molecular target: Serine/threonine-protein kinase MARK2 (Homo sapiens) (UniProt Q7KZI7); test: Binding affinity to human Mark2 isoleucine residue assessed as residual binding at 1 uM by site dependent competitive binding assay
[20] = molecular target: Serine/threonine-protein kinase 3 (Homo sapiens) (UniProt Q13188); test: Binding affinity to human Mst2 […] residue assessed as residual binding at 1 uM by site dependent competitive binding assay
[21] = molecular target: T2, Platelet-derived growth factor receptor alpha (Homo sapiens, UniProt P16234); test: Binding affinity to human PDGFRalpha cysteine residue assessed as residual binding at 1 uM by site dependent competitive binding assay
[22] = molecular target: Platelet-derived growth factor receptor beta (Homo sapiens) (UniProt P09619); test: Binding affinity to human PDGFRbeta cysteine residue assessed as residual binding at 1 uM by site dependent competitive binding assay
[23] = molecular target: Tyrosine-protein kinase ABL1 (Homo sapiens, UniProt P00519); test: Inhibition of human wild type ABL1 assessed as [gamma33P]ATP incorporation into poly-Ala-Glu-Lys-Tyr after 60 mins by microplate scintillation counting
[24] = molecular target: T1, Mast/stem cell growth factor receptor Kit; test: Inhibition of human wild type KIT assessed as [gamma33P]ATP incorporation into polyGluTyr after 60 mins by microplate scintillation counting
[25] = molecular target: T2, Platelet-derived growth factor receptor alpha; test: Inhibition of human wild type PDGFRalpha assessed as [gamma33P]ATP incorporation into poly-Ala-Glu-Lys-Tyr after 60 mins by microplate scintillation counting
[26] = molecular target: Cyclin-dependent kinase-like 1 (Homo sapiens) (UniProt Q00532); test: Binding affinity to human CDKL1 assessed as residual binding at 1 uM by site dependent competitive binding assay
[27] = molecular target: Macrophage colony-stimulating factor 1 receptor (Homo sapiens) (UniProt P07333); test: Binding affinity to human CSF1R assessed as residual binding at 1 uM by site dependent competitive binding assay
[28] = molecular target: Tyrosine-protein kinase Fer (Homo sapiens) (UniProt P16591); test: Binding affinity to human Fer assessed as residual binding at 1 uM by site dependent competitive binding assay
[29] = molecular target: Tyrosine-protein kinase Fes/Fps (Homo sapiens) (UniProt P07332); test: Binding affinity to human Fes assessed as residual binding at 1 uM by site dependent competitive binding assay
[30] = molecular target: Fibroblast growth factor receptor 1 (Homo sapiens) (UniProt P11362); test: Binding affinity to human Fgfr1 assessed as residual binding at 1 uM by site dependent competitive binding assay
[31] = molecular target: Fibroblast growth factor receptor 2 (Homo sapiens) (UniProt P21802); test: Binding affinity to human Fgfr2 assessed as residual binding at 1 uM by site dependent competitive binding assay
[32] = molecular target: Fibroblast growth factor receptor 3 (Homo sapiens) (UniProt P22607); test: Binding affinity to human Fgfr3 assessed as residual binding at 1 uM by site dependent competitive binding assay
[33] = molecular target: Fibroblast growth factor receptor 4 (Homo sapiens) (UniProt P22455); test: Binding affinity to human Fgfr4 assessed as residual binding at 1 uM by site dependent competitive binding assay
[34] = molecular target: Vascular endothelial growth factor receptor 1 (Homo sapiens) (UniProt P17948); test: Binding affinity to human Flt1 assessed as residual binding at 1 uM by site dependent competitive binding assay
[35] = molecular target: Receptor-type tyrosine-protein kinase FLT3 (Homo sapiens) (UniProt P36888); test: Binding affinity to human Flt3 assessed as residual binding at 1 uM by site dependent competitive binding assay
[36] = molecular target: Vascular endothelial growth factor receptor 3 (Homo sapiens) (UniProt P35916); test: Binding affinity to human Flt4 assessed as residual binding at 1 uM by site dependent competitive binding assay
[37] = molecular target: Tyrosine-protein kinase JAK3 (Homo sapiens) (UniProt P52333); test: Binding affinity to human Jak3 domain 1 assessed as residual binding at 1 uM by site dependent competitive binding assay
[38] = molecular target: T1, Mast/stem cell growth factor receptor Kit; test: Binding affinity to human Kit assessed as residual binding at 1 uM by site dependent competitive binding assay
[39] = molecular target: T2, Platelet-derived growth factor receptor alpha; test: Binding affinity to human PDGFRalpha assessed as residual binding at 1 uM by site dependent competitive binding assay
[40] = molecular target: Platelet-derived growth factor receptor beta (Homo sapiens) (UniProt P09619); test: Binding affinity to human PDGFRbeta assessed as residual binding at 1 uM by site dependent competitive binding assay
[41] = molecular target: Vascular endothelial growth factor receptor 2 (Homo sapiens) (UniProt P35968); test: Binding affinity to human Vegfr2 assessed as residual binding at 1 uM by site dependent competitive binding assay
[42] = molecular target: Tyrosine-protein kinase ABL2 (Homo sapiens) (UniProt P42684); test: Binding affinity to human ABL2 phenylalanine residue assessed as residual binding at 1 uM by site dependent competitive binding assay
[43] = molecular target: Tyrosine-protein kinase Blk (Homo sapiens) (UniProt P51451); test: Binding affinity to human BLK serine residue assessed as residual binding at 1 uM by site dependent competitive binding assay
[44] = test system: Serine/threonine-protein kinase B-raf (Homo sapiens), P15056 [V600E]; test: Binding affinity to human BRAF V600E mutant isoleucine residue assessed as residual binding at 1 uM by site dependent competitive binding assay
[45] = molecular target: Calcium/calmodulin-dependent protein kinase kinase 1 (Homo sapiens) (UniProt Q8N5S9); test: Binding affinity to human CAMKK1 isoleucine residue assessed as residual binding at 1 uM by site dependent competitive binding assay
[46] = molecular target: Calcium/calmodulin-dependent protein kinase kinase 2 (Homo sapiens) (UniProt Q96RR4); test: Binding affinity to human CAMKK2 isoleucine residue assessed as residual binding at 1 uM by site dependent competitive binding assay
[47] = molecular target: Macrophage colony-stimulating factor 1 receptor (Homo sapiens) (UniProt P07333); test: Binding affinity to human CSF1R cysteine residue assessed as residual binding at 1 uM by site dependent competitive binding assay
[48] = molecular target: Epithelial discoidin domain-containing receptor 1 (Homo sapiens) (UniProt Q08345); test: Binding affinity to human DDR1 phenylalanine residue assessed as residual binding at 1 uM by site dependent competitive binding assay
[49] = molecular target: Discoidin domain-containing receptor 2 (Homo sapiens) (UniProt Q16832); test: Binding affinity to human DDR2 phenylalanine residue assessed as residual binding at 1 uM by site dependent competitive binding assay
[50] = molecular target: Serine/threonine-protein kinase 17A (Homo sapiens) (UniProt Q9UEE5); test: Binding affinity to human DRAK1 valine residue assessed as residual binding at 1 uM by site dependent competitive binding assay
[51] = molecular target: Ephrin type-A receptor 8 (Homo sapiens) (UniProt P29322); test: Binding affinity to human EPHA8 tyrosine residue assessed as residual binding at 1 uM by site dependent competitive binding assay
[52] = molecular target: Cyclin-G-associated kinase (Homo sapiens) (UniProt O14976); test: Binding affinity to human GAK isoleucine residue assessed as residual binding at 1 uM by site dependent competitive binding assay
[53] = molecular target: Protein-tyrosine kinase 2-beta (Homo sapiens) (UniProt Q14289); test: Binding affinity to human Pyk2 assessed as residual binding at 1 uM by site dependent competitive binding assay

Tyrosine-protein kinase ABL1, sequence (P00519 whole entry): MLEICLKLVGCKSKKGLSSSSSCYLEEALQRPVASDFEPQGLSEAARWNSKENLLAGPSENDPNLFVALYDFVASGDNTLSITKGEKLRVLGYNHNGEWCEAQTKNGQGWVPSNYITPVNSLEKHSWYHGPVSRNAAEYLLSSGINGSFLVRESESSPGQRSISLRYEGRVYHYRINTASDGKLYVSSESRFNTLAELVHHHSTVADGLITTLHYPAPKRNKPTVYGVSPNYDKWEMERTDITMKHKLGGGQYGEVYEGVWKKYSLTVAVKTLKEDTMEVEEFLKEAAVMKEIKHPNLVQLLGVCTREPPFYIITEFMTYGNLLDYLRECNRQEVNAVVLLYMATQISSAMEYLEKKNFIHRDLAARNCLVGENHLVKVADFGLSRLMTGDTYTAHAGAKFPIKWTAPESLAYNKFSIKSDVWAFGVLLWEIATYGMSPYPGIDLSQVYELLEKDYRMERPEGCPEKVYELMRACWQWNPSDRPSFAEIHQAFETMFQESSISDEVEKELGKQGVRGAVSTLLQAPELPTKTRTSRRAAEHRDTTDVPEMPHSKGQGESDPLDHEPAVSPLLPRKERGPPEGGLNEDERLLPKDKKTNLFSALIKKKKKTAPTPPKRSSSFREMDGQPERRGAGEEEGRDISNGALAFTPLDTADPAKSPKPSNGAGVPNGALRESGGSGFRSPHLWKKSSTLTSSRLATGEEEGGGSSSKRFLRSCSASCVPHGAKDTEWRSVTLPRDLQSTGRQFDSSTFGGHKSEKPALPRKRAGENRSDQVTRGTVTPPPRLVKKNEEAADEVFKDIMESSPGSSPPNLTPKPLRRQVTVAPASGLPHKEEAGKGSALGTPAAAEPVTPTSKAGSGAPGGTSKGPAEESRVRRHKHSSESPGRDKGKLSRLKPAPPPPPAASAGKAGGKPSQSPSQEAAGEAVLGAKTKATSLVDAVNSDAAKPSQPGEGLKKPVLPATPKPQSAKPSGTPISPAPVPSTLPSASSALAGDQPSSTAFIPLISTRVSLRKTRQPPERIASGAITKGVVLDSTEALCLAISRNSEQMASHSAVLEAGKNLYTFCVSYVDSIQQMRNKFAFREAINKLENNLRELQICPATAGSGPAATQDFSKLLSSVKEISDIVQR
T2 sequence (P16234 whole entry): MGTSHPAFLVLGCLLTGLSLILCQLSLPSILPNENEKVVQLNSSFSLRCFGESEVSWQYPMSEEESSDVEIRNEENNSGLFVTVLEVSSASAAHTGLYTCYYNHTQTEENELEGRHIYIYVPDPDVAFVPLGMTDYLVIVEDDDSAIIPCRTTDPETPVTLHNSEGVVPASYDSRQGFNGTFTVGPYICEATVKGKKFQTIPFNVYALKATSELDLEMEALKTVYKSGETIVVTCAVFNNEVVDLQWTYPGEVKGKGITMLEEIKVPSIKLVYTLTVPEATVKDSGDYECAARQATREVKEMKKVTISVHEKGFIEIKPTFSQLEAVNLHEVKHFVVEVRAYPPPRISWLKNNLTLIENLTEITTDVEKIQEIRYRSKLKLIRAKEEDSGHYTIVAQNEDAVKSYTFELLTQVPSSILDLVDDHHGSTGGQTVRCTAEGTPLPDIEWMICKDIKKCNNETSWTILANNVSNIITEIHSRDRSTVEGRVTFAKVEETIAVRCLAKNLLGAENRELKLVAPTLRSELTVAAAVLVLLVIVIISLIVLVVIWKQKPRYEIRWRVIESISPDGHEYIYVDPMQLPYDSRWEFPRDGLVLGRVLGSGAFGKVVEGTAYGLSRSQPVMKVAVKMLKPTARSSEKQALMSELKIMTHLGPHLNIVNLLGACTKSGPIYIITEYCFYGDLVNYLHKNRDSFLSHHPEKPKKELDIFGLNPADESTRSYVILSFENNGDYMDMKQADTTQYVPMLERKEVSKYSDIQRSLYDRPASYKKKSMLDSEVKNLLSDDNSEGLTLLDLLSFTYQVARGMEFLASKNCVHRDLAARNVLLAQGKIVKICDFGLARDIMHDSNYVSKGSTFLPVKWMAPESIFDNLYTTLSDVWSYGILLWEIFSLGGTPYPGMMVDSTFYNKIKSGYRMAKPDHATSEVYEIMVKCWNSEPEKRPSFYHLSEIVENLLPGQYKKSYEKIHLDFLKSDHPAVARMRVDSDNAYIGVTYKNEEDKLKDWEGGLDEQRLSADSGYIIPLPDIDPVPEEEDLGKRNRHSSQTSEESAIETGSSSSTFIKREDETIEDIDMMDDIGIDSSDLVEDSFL
T1 sequence (P10721 whole entry): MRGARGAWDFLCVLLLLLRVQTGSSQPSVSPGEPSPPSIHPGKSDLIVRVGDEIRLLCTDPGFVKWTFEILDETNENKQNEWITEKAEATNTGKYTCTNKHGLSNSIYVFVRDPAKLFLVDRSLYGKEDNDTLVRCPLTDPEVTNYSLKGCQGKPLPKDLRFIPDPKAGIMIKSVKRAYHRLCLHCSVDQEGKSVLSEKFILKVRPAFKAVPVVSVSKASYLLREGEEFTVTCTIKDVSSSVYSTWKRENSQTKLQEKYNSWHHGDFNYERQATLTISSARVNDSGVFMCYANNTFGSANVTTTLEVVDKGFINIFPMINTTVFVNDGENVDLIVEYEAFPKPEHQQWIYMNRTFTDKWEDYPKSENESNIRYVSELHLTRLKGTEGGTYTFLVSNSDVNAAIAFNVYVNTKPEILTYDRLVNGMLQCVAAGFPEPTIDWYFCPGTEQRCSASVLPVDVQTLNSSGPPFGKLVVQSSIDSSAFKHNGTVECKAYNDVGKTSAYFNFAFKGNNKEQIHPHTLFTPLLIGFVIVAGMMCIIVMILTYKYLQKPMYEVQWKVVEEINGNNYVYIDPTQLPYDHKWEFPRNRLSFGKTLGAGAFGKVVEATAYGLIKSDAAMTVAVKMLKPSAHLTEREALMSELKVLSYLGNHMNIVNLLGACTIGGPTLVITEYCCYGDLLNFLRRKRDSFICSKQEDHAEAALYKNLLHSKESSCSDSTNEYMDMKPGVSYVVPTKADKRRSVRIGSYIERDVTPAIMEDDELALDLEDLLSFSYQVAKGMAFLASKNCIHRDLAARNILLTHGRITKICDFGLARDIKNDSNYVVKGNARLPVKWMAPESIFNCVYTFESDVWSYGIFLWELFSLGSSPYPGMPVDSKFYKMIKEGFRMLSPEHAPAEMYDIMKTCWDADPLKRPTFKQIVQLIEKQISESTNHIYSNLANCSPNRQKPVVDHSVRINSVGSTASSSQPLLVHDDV
Tyrosine-protein kinase Blk (Homo sapiens), sequence (P51451 2-505 limits assumed): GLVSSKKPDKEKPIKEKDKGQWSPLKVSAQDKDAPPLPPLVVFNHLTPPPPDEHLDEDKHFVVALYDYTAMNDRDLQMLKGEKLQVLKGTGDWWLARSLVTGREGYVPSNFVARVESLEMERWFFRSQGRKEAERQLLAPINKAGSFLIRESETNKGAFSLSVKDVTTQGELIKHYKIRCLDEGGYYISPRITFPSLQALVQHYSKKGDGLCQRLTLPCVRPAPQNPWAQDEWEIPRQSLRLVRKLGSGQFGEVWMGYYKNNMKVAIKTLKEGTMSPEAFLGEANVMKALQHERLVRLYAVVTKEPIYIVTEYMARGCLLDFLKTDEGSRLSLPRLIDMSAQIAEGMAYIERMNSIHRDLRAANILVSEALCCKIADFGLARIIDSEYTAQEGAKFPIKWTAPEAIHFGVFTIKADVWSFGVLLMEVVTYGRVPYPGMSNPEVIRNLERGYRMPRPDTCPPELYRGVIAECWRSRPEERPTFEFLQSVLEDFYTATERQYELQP
Cyclin-G-associated kinase (Homo sapiens), sequence (O14976 whole entry): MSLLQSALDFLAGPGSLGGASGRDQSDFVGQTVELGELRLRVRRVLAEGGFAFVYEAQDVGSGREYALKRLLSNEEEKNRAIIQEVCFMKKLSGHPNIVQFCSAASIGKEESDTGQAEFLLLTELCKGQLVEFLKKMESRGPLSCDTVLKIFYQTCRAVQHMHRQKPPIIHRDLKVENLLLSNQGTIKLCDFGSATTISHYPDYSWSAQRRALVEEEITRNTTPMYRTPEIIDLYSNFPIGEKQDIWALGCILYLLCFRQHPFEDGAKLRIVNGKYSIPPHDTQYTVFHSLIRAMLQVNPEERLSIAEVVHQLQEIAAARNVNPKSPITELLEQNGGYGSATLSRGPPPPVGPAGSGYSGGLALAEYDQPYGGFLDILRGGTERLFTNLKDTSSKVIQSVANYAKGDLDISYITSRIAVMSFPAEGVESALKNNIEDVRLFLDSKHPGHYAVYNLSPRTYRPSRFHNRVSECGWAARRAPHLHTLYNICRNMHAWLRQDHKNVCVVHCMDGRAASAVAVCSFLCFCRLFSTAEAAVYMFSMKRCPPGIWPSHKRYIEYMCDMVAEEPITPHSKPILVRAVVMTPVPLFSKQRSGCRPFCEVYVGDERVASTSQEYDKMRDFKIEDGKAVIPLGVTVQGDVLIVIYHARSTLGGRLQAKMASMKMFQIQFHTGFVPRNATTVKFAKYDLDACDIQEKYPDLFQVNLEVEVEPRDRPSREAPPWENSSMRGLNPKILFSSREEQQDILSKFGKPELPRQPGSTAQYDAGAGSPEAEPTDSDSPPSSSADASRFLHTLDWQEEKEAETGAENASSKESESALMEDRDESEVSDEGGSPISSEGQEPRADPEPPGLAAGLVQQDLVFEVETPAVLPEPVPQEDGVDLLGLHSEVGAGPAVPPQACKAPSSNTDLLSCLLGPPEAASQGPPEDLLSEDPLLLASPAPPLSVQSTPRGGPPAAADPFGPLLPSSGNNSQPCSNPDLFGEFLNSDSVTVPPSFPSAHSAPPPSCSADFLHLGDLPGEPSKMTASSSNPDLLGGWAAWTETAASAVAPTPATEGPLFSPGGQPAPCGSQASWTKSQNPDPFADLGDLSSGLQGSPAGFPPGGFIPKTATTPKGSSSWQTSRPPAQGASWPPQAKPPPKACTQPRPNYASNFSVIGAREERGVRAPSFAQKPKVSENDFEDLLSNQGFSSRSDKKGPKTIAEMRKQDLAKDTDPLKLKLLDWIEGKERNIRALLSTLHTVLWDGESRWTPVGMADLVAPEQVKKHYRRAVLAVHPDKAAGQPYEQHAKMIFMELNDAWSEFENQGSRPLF
Mast/stem cell growth factor receptor Kit (Homo sapiens), P10721 [V559D], sequence (P10721 whole entry V559D): as the sequence (P10721 whole entry) above, with V559D counted along it
Mast/stem cell growth factor receptor Kit (Homo sapiens), P10721 [V559D,V654A], sequence (P10721 whole entry V559D/V654A): as the sequence (P10721 whole entry) above, with V559D, V654A counted along it

## Cc1ccc(NC(=O)c2ccc(CN3CCN(C)CC3)cc2)cc1Nc1nccc(-c2cccnc2)n1
[1]
  Activity: 0.8%
[2]
  Activity: 7.2%
[3]
  Activity: 5.1%
[4]
  Activity: 8.8%
[5]
  Activity: 5.2%
[6]
  Activity: 91%
[7]
  Activity: 97%
[8]
  Activity: 99%
[9]
  Activity: 78%
[10]
  Activity: 85%

## Cc1ccc(NC(=O)c2ccc(CNC(=O)CCl)cc2)cc1Nc1nccc(-c2cccnc2)n1
[11]
  Activity: 0.45%
[12]
  Activity: 4.6%
[13]
  Activity: 1.9%
[14]
  Activity: 0%
[15]
  Activity: 0%
[16]
  Activity: 7%
[17]
  Activity: 64%
[18]
  Activity: 76%
[19]
  Activity: 100%
[20]
  Activity: 100%
[21]
  Activity: 0.7%
[22]
  Activity: 0%
[23]
  IC50: > 20000 nM
[24]
  IC50: 788 nM
[25]
  IC50: 1080 nM
[26]
  Activity: 100%
[27]
  Activity: 5%
[28]
  Activity: 95%
[29]
  Activity: 100%
[30]
  Activity: 100%
[31]
  Activity: 92%
[32]
  Activity: 100%
[33]
  Activity: 100%
[34]
  Activity: 86%
[35]
  Activity: 81%
[36]
  Activity: 100%
[37]
  Activity: 100%
[38]
  Activity: 0%
[39]
  Activity: 0.7%
[40]
  Activity: 0%
[41]
  Activity: 64%
[42]
  Activity: 49%
[43]
  Activity: 69%
[44]
  Activity: 4.6%
[45]
  Activity: 100%
[46]
  Activity: 100%
[47]
  Activity: 5%
[48]
  Activity: 0.5%
[49]
  Activity: 31%
[50]
  Activity: 100%
[51]
  Activity: 100%
[52]
  Activity: 18%
[53]
  Activity: 68%

## Cc1ccc(NC(=O)c2ccc(CN)cc2)cc1Nc1nccc(-c2cccnc2)n1
[23]
  IC50: > 20000 nM
[24]
  IC50: 788 nM

## Cc1ccc(NC(=O)c2ccc(CCl)cc2)cc1Nc1nccc(-c2cccnc2)n1
[24]
  IC50: 245 nM

## C=C(C)C(=O)NCc1ccc(C(=O)Nc2ccc(C)c(Nc3nccc(-c4cccnc4)n3)c2)cc1
[23]
  IC50: > 20000 nM
[24]
  IC50: 2740 nM

## C/C=C/C(=O)NCc1ccc(C(=O)Nc2ccc(C)c(Nc3nccc(-c4cccnc4)n3)c2)cc1
[23]
  IC50: > 20000 nM
[24]
  IC50: 4710 nM
